The term inhibition denotes the percentage by which the read-out fell short of the control. Read a low inhibition as a weak effect.

The structures appear in SMILES notation.

27 compounds from EP0073276A1, “A method of increasing the feed efficiency of animals, and compositions for use in such a method” (RORER INTERNATIONAL (OVERSEAS) INC., priority 1981, dated 1983) can be followed below.

What all share (type): in vivo
One experiment concerns poultry. Kind of experiment: Feed efficiency studies on poultry under strict laboratory conditions. The note with it: disease and parasite-free environment, relative to control animals. From the text: Studies on poultry conducted under strict laboratory conditions, that is, in a disease and parasitt -free environment, indicate that the administration of feed efficiency agents, such as the amidinoureas defined in formulae I-VI and in particular 1-(2,6-dimethylphenyl)-3-methylamidinourea, results in an increase in the feed conversion ratio and weight gain of the treated animal relative to that of the control animals. The % improvement in the feed conversion ratio in the treated animals as compared with the controls is expressed by: • Body Weight Gain of Body Weight Gain of [formula]

The subject of experiment [1] is Swiss-Webster male mice or Sprague-Dawley male rats. In words: Charcoal motility (intestinal transit of a charcoal suspension). Particulars: oral dose 4 mg/kg, 30 minutes before charcoal; sacrificed 30 minutes after charcoal; species (mice or rats) not given. Here is the method: A charcoal suspension (10 cm /kg of a 10% suspension of activated charcoal, U.S.P. in 0.5% methylcellulose) is given orally either to groups of 10 Swiss-Webster male mice (18-22 g, Taconic Farms) or groups of 5 Sprague-Dawley male rats (120-140 g, Charles River Breeding Labs., Inc.) 30 minutes after an oral dose of drug or control. The animals are sacrificied 30 minutes after receiving the charcoal and the intestines are carefully removed without stretching and placed lengthwise on moist paper. The length of the intestine (pyloric sphincter to caecum) and the distance travelled by the charcoal as a fraction of that length are evaluated for each animal and group means are compared and expressed as percentage inhibition; [formula] For estimation of the duration of inhibition, the interval between dosing with drug and the administration of charcoal is varied from 30 minutes to 6 hours.

The next experiment relates to Male Sprague-Dawley rats. In words: Gastric emptying test (Amberlite pellet retention in the stomach). The note with it: Rattus norvegicus, 30 minutes before 30 pellets, pellets counted four hours later; for inhibition at 10 mg/kg: oral dose 10 mg/kg; for inhibition at 0.25 mg/kg: oral dose 0.25 mg/kg; for inhibition at 0.5 mg/kg: oral dose 0.5 mg/kg. Here is the method: The gastric emptying test is performed essentially as described by Brodie in Gastroenterology 50, 45-50 (1966). Male Sprague-Dawley rats (groups of five) are dosed orally with the test compounds or controls 30 minutes before the oral administration of 30 Amerlite pellets (Rohm & Haas Amberlite IRA-93, 1 mm diameter) suspended in 1 cm3 distilled water. The animals are killed with pentobarbital four hours after the pellets are given; the stomachs are removed and the number of pellets remaining in the stomach counted. The control group is compared to the drug treated group using the following formula: %retention = [(mean drug- treated) - (mean control) / 30-(mean control)] X 100.

As to `CNC(=N)NC(=O)Nc1c(C)cccc1C` [1-(2,6-dimethylphenyl)-3-methylamidinourea], in the experiment with poultry, the feed conversion ratio entry was “increase” and the weight gain result is “increase”.

`N=C(N)NC(=O)Nc1c(Br)cccc1Br` [R'=Br, R"=Br, Rm=H, R6=H, R1=H] gave an inhibition at 4 mg/kg in experiment [1] of 91%.

The compound `Cc1cccc(Br)c1NC(=O)NC(=N)N` [R'=Br, R"=CH3, Rm=H, R6=H, R1=H] displayed an inhibition at 4 mg/kg in experiment [1] of 89%.

In turn, `CNC(=N)NC(=O)Nc1c(C)ccc(Br)c1C` [R'=CH3, R"=CH3, Rm=3Br, R6=H, R1=CH3] had an inhibition at 4 mg/kg in experiment [1] of 22%.

In the case of `Cc1cc(C)c(NC(=O)NC(=N)N)c(C)c1` [R'=CH3, R"=CH3, Rm=4-CH3, R6=H, R1=H], at 10 mg/kg the inhibition in the experiment on Male Sprague-Dawley rats was 45%.

In experiment [1], `CCCNC(=N)NC(=O)Nc1c(C)cc(C)cc1C` [R'=CH3, R"=CH3, Rm=4-CH3, R6=H, R1=n-Pr] displayed an inhibition at 4 mg/kg of 15%.

`Cc1cccc(C)c1N(C)C(=O)NC(=N)N` [R'=CH3, R"=CH3, Rm=H, R6=CH3, R1=H] displayed an inhibition at 2 mg/kg in the experiment on Male Sprague-Dawley rats (oral dose 2 mg/kg) of 55%.

In the experiment with Male Sprague-Dawley rats, `Cc1cccc(C)c1NC(=O)NC(=N)N` [R'=CH3, R"=CH3, Rm=H, R6=H, R1=H] gave an inhibition at 0.25 mg/kg of 55%.

In experiment [1], `CCCCN(C(=O)NC(=N)N)c1c(C)cccc1C` [R'=CH3, R"=CH3, Rm=H, R6=n-Bu, R1=H] returned an inhibition at 4 mg/kg of 72%.

For the compound `Cc1cc(Cl)ccc1NC(=O)NC(=N)N` [R'=CH3, R"=H, Rm=4-Cl, R6=H, R1=H], 10 mg/kg produced 28% inhibition with Male Sprague-Dawley rats.

Consider `CNC(=N)NC(=O)Nc1ccccc1C` [R'=CH3, R"=H, Rm=H, R6=H, R1=CH3], for which 4 mg/kg produced 11% inhibition in experiment [1].

As for `Cc1ccccc1NC(=O)NC(=N)N` [R'=CH3, R"=H, Rm=H, R6=H, R1=H], the inhibition at 10 mg/kg in the experiment with Male Sprague-Dawley rats came out at 54%.

In turn, `Cc1cccc([N+](=O)[O-])c1NC(=O)NC(=N)N` [R'=CH3, R"=NO2, Rm=H, R6=H, R1=H] registered an inhibition at 4 mg/kg in experiment [1] of 82%.

The compound `Cc1cccc(Cl)c1N(C)C(=O)NC(=N)N` [R'=Cl, R"=CH3, Rm=H, R6=CH3, R1=H] yielded an inhibition at 4 mg/kg in experiment [1] of 82%.

The compound `Cc1cccc(Cl)c1NC(=O)NC(=N)N` [R'=Cl, R"=CH3, Rm=H, R6=H, R1=H] had an inhibition at 0.25 mg/kg in the experiment with Male Sprague-Dawley rats of 43%.

In the experiment with Male Sprague-Dawley rats (oral dose 40 mg/kg), `N=C(N)NC(=O)Nc1c(Cl)cc(Br)cc1Cl` [R'=Cl, R"=Cl, Rm=4Br, R6=H, R1=H] returned an inhibition at 40 mg/kg of 54%.

Consider `N=C(N)NC(=O)Nc1c(Cl)cccc1Cl` [R'=Cl, R"=Cl, Rm=H, R6=H, R1=H], for which testing at 0.125 mg/kg with Male Sprague-Dawley rats (oral dose 0.125 mg/kg) gave an inhibition of 54%.

In the experiment with Male Sprague-Dawley rats, `N=C(N)NC(=O)Nc1c(F)cccc1Cl` [R'=Cl, R"=F, Rm=H, R6=H, R1=H] displayed an inhibition at 0.25 mg/kg of 60%.

The compound `Cc1ccc(NC(=O)NC(=N)N)c(Cl)c1` [R'=Cl, R"=H, Rm=4-CH3, R6=H, R1=H] showed an inhibition at 10 mg/kg in the experiment with Male Sprague-Dawley rats of 40%.

Turning to `N=C(N)NC(=O)Nc1ccc(Cl)cc1Cl` [R'=Cl, R"=H, Rm=4-Cl, R6=H, R1=H], the inhibition at 10 mg/kg with Male Sprague-Dawley rats was 85%.

Consider `CCc1cccc(C)c1NC(=O)NC(=N)N` [R'=ET, R"=CH3, Rm=H, R6=H, R1=H], for which, in the experiment with Male Sprague-Dawley rats, testing at 0.5 mg/kg gave an inhibition of 30%.

With `CCc1cccc(CC)c1N(C)C(=O)NC(=N)N` [R'=ET, R"=ET, Rm=H, R6=CH3, R1=H], in experiment [1], at 4 mg/kg the inhibition was 12%.

The compound `CCc1cccc(CC)c1NC(=O)NC(=N)N` [R'=ET, R"=ET, Rm=H, R6=H, R1=H] came in with an inhibition at 2.5 mg/kg in the experiment on Male Sprague-Dawley rats (oral dose 2.5 mg/kg) of 83%.

Take `N=C(N)NC(=O)Nc1ccc(Cl)c(Cl)c1` [R'=H, R"=H, Rm=3-Cl 4-Cl, R6=H, R1=H]: at 10 mg/kg the inhibition in the experiment on Male Sprague-Dawley rats was 74%.

On to `CCNC(=N)NC(=O)Nc1ccc(N)cc1` [R'=H, R"=H, Rm=4-NH2, R6=H, R1=ET], for which testing at 4 mg/kg in experiment [1] gave an inhibition of 20%.

In the experiment on Male Sprague-Dawley rats, `N=C(N)NC(=O)Nc1ccc([N+](=O)[O-])cc1` [R'=H, R"=H, Rm=4NO2, R6=H, R1=H] gave an inhibition at 10 mg/kg of 59%.

For `COc1cccc(C)c1NC(=O)NC(=N)N` [R'=OCH3, R"=CH3, Rm=H, R6=H, R1=H], 0.5 mg/kg produced 70% inhibition in the experiment with Male Sprague-Dawley rats.
